The source of these data is publication PMC8880671, “Facial Synthesis and Bioevaluation of Well-Defined OEGylated Betulinic Acid-Cyclodextrin Conjugates for Inhibition of Influenza Infection” (Molecules, 2022).

Read-outs that look alike come from different tables or passages of the source.

The term EC50 denotes the concentration at which the effect is half-maximal. A word on the viability: it is a read-out of living cells in per cent, often relative to untreated cells. Low readings indicate a greater loss of cells, high ones better survival.

In data set [1] the test system is MDCK cells. As to the kind of experiment: Cytotoxicity test, CellTiter-Glo luminescent cell viability assay. The following applies: for MDCK cell viability: 100 µM, 36 h, CellTiter-Glo; for CC50: read-out: CC50 (cytotoxicity concentration for 50% cell death), MDCK cells. For orientation: Cellular ATP, detected with luciferase, serves as a proxy for viable cell number.

The test system of data set [2] is influenza A/WSN/33 (H1N1) virus. As to the kind of experiment: microbe, parasite or virus in culture. The note with it: for inhibition rate against influenza virus A/WSN/33 (H1N1): CPE-based screening at 20 μM; for IC50: read-out: IC50 (half maximal inhibitory concentration). In kind it is cell-based.
Data set [3] concerns avian influenza KBNP-0028 (H9N2) virus. The note with it: read-out: EC50 against avian influenza KBNP-0028 (H9N2) virus; cited from earlier work.
A short description of data set [4]: in vitro. The note with it: dog.
Data set [5] has as its system A/PR/8/34 virus. Further details: method as in PMID 26157551. The following applies: 10 μM; cited from earlier work.
Data set [6] has as its system MDCK cells. The following applies: read-out: CC50 (cytotoxicity concentration for 50% cell death); cited from earlier work.
Data set [7] relates to influenza virus. Further details: method as in PMID 28792469. The note with it: 50 µg/mL; cited from earlier work.
For data set [8], the system named is influenza virus. Also on record: method as in doi:10.1134/S1068162018050059. The following applies: read-out: EC50, anti-influenza activity; cited from earlier work.
A short description of data set [9]: Cytotoxicity test, CellTiter-Glo luminescent cell viability assay. The following applies: dog, MDCK cells.

“Heptakis 6-Deoxy-6-[4-N-[(2-(2-(2-Propyn-1-yloxy)ethoxy)ethyl)-3β-hydroxy-lup-20(29)-en-28-Oyl]-aminomethyl-1H-1,2,3-triazol-1-Yl]-2,3-di-O-acetyl-β-CD [Compound 58]” displayed an MDCK cell viability in [1] of 68%.

For the compound “Octakis 6-Deoxy-6-[4-N-[(3,6,9,12-Tetraoxapentadec-14-yn-1-yl)-3β-hydroxy-lup-20(29)-en-28-oyl]-aminomethyl-1H-1,2,3-triazol-1-yl]-γ-CD [Compound 80]”, the MDCK cell viability in data set [1] is 64%. Consider “Hexakis 6-Deoxy-6-[4-N-[(3,6,9,12-Tetraoxapentadec-14-yn-1-yl)-3β-hydroxy-lup-20(29)-en-28-oyl]-aminomethyl-1H-1,2,3-triazol-1-yl]-α-CD [Compound 78]”, for which, in data set [2], the “inhibition rate against influenza virus A/WSN/33 (H1N1)” value (shortened to “inhibition rate”) was “over 50%”. Regarding “Hexakis 6-Deoxy-6-[4-N-[(2-(2-(2-Propyn-1-yloxy)ethoxy)ethyl)-3β-hydroxy-lup-20(29)-en-28-oyl]-aminomethyl-1H-1,2,3-triazol-1-yl]-2,3-di-O-acetyl-α-CD [Compound 57]”, in data set [2], the “inhibition rate” value is given as “over 50%”. “Heptakis 6-Deoxy-6-[4-N-(3β-Hydroxy-lup-20(29)-en-28-oyl)-aminomethyl-1H-1,2,3-triazol-1-yl]-β-CD [Compound 70]”: in [1], the CC50 is more than 100 µM. For the same compound, in data set [2], the IC50 worked out at 7.48 ± 1.93 µM. “Heptakis 6-Deoxy-6-[4-N-[(3,6,9,12,15,18-Hexaoxaheneicos-20-yn-1-yl)-3β-hydroxy-lup-20(29)-en-28-oyl]-aminomethyl-1H-1,2,3-triazol-1-yl]-β-CD [Compound 82]” showed an MDCK cell viability in [1] of 67%. `C=C(C)[C@@H]1CC[C@]2(C=O)CC[C@]3(C)[C@H](CC[C@@H]4[C@@]5(C)CC[C@H](O)C(C)(C)[C@@H]5CC[C@]43C)[C@@H]12` [Betulinic aldehyde]: the EC50 in data set [3] was 28.4 µM. Regarding `CC(=O)N[C@H]1[C@H]([C@H](O)[C@H](O)CO)OC(C(=O)O)=C[C@@H]1N=C(N)N` [Zanamivir, reference compound], the CC50 in data set [4] is more than 100 µM. Moreover, in [2], the “SI (Selectivity Index, ratio of CC50 to IC50)” value is on record as more than 79.4. Also, the IC50 in data set [2] (Influenza A virus, MDCK, 36 h) came out at 1.26 ± 0.36 µM. As to “Hexakis 6-Deoxy-6-[4-N-[(2-(2-(2-Propyn-1-yloxy)ethoxy)ethyl)-3β-hydroxy-lup-20(29)-en-28-oyl]-aminomethyl-1H-1,2,3-triazol-1-yl]-α-CD [Compound 75]”, the IC50 in data set [2] (A/WSN/33 virus in MDCK cells, MOI 0.2, 36 h) was 15.6 ± 3.32 µM. The “inhibition rate” value in data set [2] is on record as “over 50%”. For the compound `C=C(C)[C@@H]1CC[C@]2(C(=O)O)CC[C@]3(C)[C@H](CC[C@@H]4[C@@]5(C)CC[C@H](O)C(C)(C)[C@@H]5CC[C@]43C)[C@@H]12` [BA, Betulinic acid], the “anti-influenza activity against A/PR/8/34 virus” value in [5] was ~ 30%. The CC50 in data set [6] is 31.9 µM. The “anti-influenza activity (inhibition)” value in data set [7] is 27.6%. The EC50 in data set [8] was more than 219 µM. Also, the viability at 36 h, 100 µM in data set [9] came to 8.5%. Turning to “Hexakis 6-Deoxy-6-[4-N-(3β-Hydroxy-lup-20(29)-en-28-oyl)-aminomethyl-1H-1,2,3-triazol-1-yl]-α-CD [Compound 69]”, in data set [1], the CC50 was more than 100 µM. Also, in data set [2], the IC50 amounted to 9.82 ± 1.74 µM.

As for “Octakis 6-Deoxy-6-[4-N-(3β-Hydroxy-lup-20(29)-en-28-oyl)-aminomethyl-1H-1,2,3-triazol-1-yl]-γ-CD [Compound 71]”, the CC50 in data set [1] was more than 100 µM. Moreover, the IC50 in [2] stood at 7.59 ± 1.57 µM.
